Consider two compounds from patent publication US20180362456A1, “NEW COMPOUNDS WITH ANTIOXIDANT AND ANTIAGING ACTIVITY” (EMS S/A, priority 2015, published 2018).

Some results are limits rather than exact numbers.

Series [1] can be described thus: Neutral Red Uptake cytotoxicity test. As to conditions: mouse, Balb3T3 cells. Format: cell-based. On the procedure:
(§1) The citotoxicity of compounds described in examples 1 and 2 was tested with the test Neutral Red Uptake to determine the IC50 values. To better define the cytotoxic potential also the lactate dehydrogenase (LDH) release was tested to verify the action on cell membrane permeability. Test were performed according to DB-ALM Protocol n L39Balb3T3 Red Uptake cytotoxicity and ISO 10993-5:2009.

For series [2], the system named is Balb3T3. Put plainly: Neutral Red Uptake cytotoxicity test. Format: cell-based. On the procedure:
as §1

Series [3] has as its system Balb3T3. Description: Lactate dehydrogenase (LDH) release, cell membrane permeability. Format: cell-based. Further details: activity on cell membrane: dose or concentration left out as unconfirmed. The settings on record: for LDH release, % of total enzyme contained in the cells: 14 hours exposition. The procedure:
as §1
Background: LDH leaks from cells whose membrane has failed.

Series [4] deals with free radicals. Description: Scavenger activity, DCA fluorimetric probe, UVA treatments. Format: cell-based. The procedure:
(§2) The antioxidant power of compounds described in examples 1 and 2 was tested in two different tests, one for the scavenger activity and one for the antioxidant activity. The method is based on the fluorimetric probe 2′,7′-dichlorofluorescein diacetate (DCA) that becomes fluorescent only when it is oxidized by free radicals.

Series [5] has as its system free radicals. Put plainly: Antioxidant activity, DCA fluorimetric probe, UVA treatments. Type of series: cell-based. On the procedure: as §2
Series [6] in a line: In vitro skin permeation, static Franz diffusion cells (OECD 428). Type of series: in vitro ADME. The settings on record: 1% solution, 5 mg/cm2 on human skin, 24 hours, unocclusive. The source says: The in vitro skin permeation experiments were developed and validated according to the Organization for Economic Cooperation and Development adopted guideline 428 (OECD guideline for the testing of chemicals. Skin absorption: in vitro method. Guideline 428 (Paris, April 2004, updated January 2011)). Briefly, static Franz diffusion cells were set up with human skin samples according with OECD and SCSS guidelines. A simple formulation containing 1% of compound of example 1 in solution was applied topically on human skin samples (5 mg/cm2) for 24 hours in an unocclusive conditions. At the end of the exposure time the Franz diffusion cells were dismantled and the distribution of the compound was measured on the skin surface, in the stratum corneum and in the rector fluid. An extraction method was developed and the day after the extraction process, all the samples were filtered through 0.22 μm membrane filter into HPLC vials. The samples of compounds of example 1, together with known concentration standards were assayed by HPLC-UV (Waters, USA). The average amount measured in the dermis was 2% of applied dose and in the receptor fluid was 3% of the applied dose. Therefore, the calculated average dermal absorption for compound 1 was 5%.

Compound `C=CCSCC(NC(=O)C1CCC(=O)N1)C(=O)OC` [Example 2, L-Pyroglutamyl-(R)-3-Allylsulfanyl-2-amino-propionic Acid Methyl Ester] showed an IC50 in series [1] greater than 3000 µM. In addition, the overall biocompatibility entry with Balb3T3 [2] is listed as “very biocompatible”. The “activity on cell membrane” value in the series with Balb3T3 [3] is “some slight activity on cell membrane”. Moreover, the “LDH release, % of total enzyme contained in the cells” value (from here on “LDH release, %”) in the series on Balb3T3 [3] (1 mM) is given as 12.3%. Also, the “reduction of free radical formation (scavenger action)” value with free radicals [4] (after first UVA treatment) is 23.5%. In the series on free radicals [5] (0.025 mM, read-out: inhibition of free radical formation (antioxidant activity)), the inhibition at 25 µM was determined as 25.6%.
In series [1], `C=CCSCC(N)C(=O)Oc1ccc(/C=C/c2cc(OC(=O)C(N)CSCC=C)cc(OC(=O)C(N)CSCC=C)c2)cc1.Cl.Cl.Cl` (stereo not drawn) [Example 1, (E)-1,1′-((5-(4-((3-(allylthio)-2-ammoniopropanoyl)oxy)styryl)-1,3-phenylene)bis(oxy))bis(3-(allylthio)-1-oxopropan-2-aminium) Chloride] had an IC50 of 113 µM. For the same compound, in the series on Balb3T3 [3], the “activity on cell membrane” value is “not highlighted a specific activity on cell membrane”. Also, the “LDH release, %” value with Balb3T3 [3] (0.2 mM) is listed as 13.0%. Further, in the series with Balb3T3 [3] (0.5 mM), the “LDH release, %” value is listed as 13.2%. Moreover, the “reduction of the formation of free radicals (scavenger activity), on average” value in the series on free radicals [4] (0.004 mM, after 5 treatments with UVA) turned out to be 41%. For the same compound, in the series on free radicals [5] (0.1 mM effective dose, after 5 treatments UVA), the “inhibition of free radical formation (antioxidant efficacy)” value is “more than 50%”. For the same compound, in series [6], the “average amount measured in the dermis” value is on record as 2 % of applied dose, the “average amount measured in the receptor fluid” value is recorded as 3 % of the applied dose and the “calculated average dermal absorption” value is on record as 5%.

The term IC50 denotes the concentration needed to halve the response being measured. By inhibition is commonly meant the relative decrease from the control value, in per cent.
